Assays:
Type in all cases: cell-based
NK3 = molecular target: T1, NK3 (Homo sapiens, UniProt P29371); assay: Signal transduction (ST), intracellular Ca++ (FLIPR), NK3; details: antagonist, read-out: NK3 pIC50 (converted)
T1 sequence (P29371 1-465): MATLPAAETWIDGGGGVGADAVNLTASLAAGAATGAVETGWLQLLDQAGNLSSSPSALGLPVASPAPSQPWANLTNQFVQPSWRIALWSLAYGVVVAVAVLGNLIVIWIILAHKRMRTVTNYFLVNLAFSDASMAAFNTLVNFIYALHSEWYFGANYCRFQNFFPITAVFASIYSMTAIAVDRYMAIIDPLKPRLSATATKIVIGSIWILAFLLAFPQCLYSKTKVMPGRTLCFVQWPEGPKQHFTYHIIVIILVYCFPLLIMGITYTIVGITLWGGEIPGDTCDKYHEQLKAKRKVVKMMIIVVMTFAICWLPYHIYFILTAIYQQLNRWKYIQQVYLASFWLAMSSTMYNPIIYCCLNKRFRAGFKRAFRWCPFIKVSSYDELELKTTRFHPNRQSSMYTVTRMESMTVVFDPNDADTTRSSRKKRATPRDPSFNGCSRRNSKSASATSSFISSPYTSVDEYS
Protocol: [The source words this procedure for another target and reports this target under the same test.] (§1) This test evaluates in vitro functional NK1 antagonistic activity. For the measurements of intracellular Ca^++ concentrations the cells were grown on 96-well (black wall/transparent bottom) plates from Costar for 2 days until they reached confluence. The cells were loaded with 2 μM Fluo3 in DMEM containing 0.1% BSA and 2.5 mM probenecid for 1 h at 37° C. They were washed 3× with a Krebs buffer (140 mM NaCl, 1 mM MgCl2×6H2O, 5 mM KCl, 10 mM glucose, 5 mM HEPES; 1.25 mM CaCl2; pH 7.4) containing 2.5 mM probenecid and 0.1% BSA (Ca^++-buffer). The cells were preincubated with a concentration range of antagonists for 20 min at RT and Ca^++-signals after addition of the agonists were measured in a Fluorescence Image Plate Reader (FLIPR from Molecular Devices, Crawley, England). The peak of the Ca^++-transient was considered as the relevant signal and the mean values of corresponding wells were analysed as described below.
(§2) The sigmoidal dose response curves were analysed by computerised curve-fitting, using the GraphPad Program. The EC50-value of a compound is the effective dose showing 50% of maximal effect. For mean curves the response to the agonist with the highest potency was normalised to 100%. For antagonist responses the IC50-value was calculated using non-linear regression.
(§3) The last columns indicate—without being limited thereto—for which action the compounds might be most suitable. Of course, since for some neurokinin receptors no data was determined, it is obvious that these compounds might be attributed to another suitable use.

NK2 = molecular target: T2, NK2 (Homo sapiens, UniProt P21452); assay: Signal transduction (ST), intracellular Ca++ (FLIPR), NK2; details: antagonist, read-out: NK2 pIC50 (converted)
T2 sequence (P21452 1-398): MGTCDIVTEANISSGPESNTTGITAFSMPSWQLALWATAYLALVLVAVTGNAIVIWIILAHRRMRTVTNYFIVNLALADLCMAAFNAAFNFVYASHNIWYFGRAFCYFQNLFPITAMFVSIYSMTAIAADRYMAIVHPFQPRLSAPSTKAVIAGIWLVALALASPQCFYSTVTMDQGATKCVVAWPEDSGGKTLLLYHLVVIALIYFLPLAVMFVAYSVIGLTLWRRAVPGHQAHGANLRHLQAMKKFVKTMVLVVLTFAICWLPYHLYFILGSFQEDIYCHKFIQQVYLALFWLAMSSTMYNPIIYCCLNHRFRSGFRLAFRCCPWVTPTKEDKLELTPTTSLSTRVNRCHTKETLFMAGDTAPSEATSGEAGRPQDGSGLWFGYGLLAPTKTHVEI
Protocol: [The source words this procedure for another target and reports this target under the same test.] as §1, §2, §3

NK1 = NK1 (Homo sapiens, UniProt P25103); assay: Signal transduction (ST), intracellular Ca++ (FLIPR), functional NK1 antagonistic activity; details: antagonist, read-out: NK1 pIC50 (converted)
Protocol: as §1, §2, §3

Chain of NK1 (P25103 whole entry): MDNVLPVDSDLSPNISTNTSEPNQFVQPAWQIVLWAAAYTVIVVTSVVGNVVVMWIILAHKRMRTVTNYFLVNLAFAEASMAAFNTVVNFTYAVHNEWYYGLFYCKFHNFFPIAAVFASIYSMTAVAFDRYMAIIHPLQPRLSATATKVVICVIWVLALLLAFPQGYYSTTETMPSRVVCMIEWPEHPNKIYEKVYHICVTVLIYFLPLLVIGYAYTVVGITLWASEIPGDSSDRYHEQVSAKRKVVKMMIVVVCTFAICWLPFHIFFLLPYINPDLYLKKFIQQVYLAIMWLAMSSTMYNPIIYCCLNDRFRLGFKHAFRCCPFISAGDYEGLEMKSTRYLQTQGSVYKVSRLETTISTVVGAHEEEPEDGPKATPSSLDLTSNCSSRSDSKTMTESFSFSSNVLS

| Structure (SMILES) | IC50 (NK3) | IC50 (NK2) | IC50 (NK1) |
| --- | --- | --- | --- |
| O=C(C1=COCCC1)N1CCC2(CC1)CCN([C@H]1CCN(C(=O)c3cc(C(F)(F)F)cc(C(F)(F)F)c3)[C@H](Cc3ccccc3)C1)CC2 [Compound 45] | > 10 µM | 5.37 µM | 0.0794 µM |
| O=C(c1ccc(=O)oc1)N1CCC2(CC1)CCN([C@H]1CCN(C(=O)c3cc(C(F)(F)F)cc(C(F)(F)F)c3)[C@H](Cc3ccccc3)C1)CC2 [Compound 46] | > 10 µM | 6.31 µM | 0.105 µM |
| Cc1cc(=O)oc(C)c1C(=O)N1CCC2(CC1)CCN([C@H]1CCN(C(=O)c3cc(C(F)(F)F)cc(C(F)(F)F)c3)[C@H](Cc3ccccc3)C1)CC2 [Compound 47] | > 10 µM | ~10 µM | 0.0661 µM |
| CN1CCC=C(C(=O)N2CCC3(CC2)CCN([C@H]2CCN(C(=O)c4cc(C(F)(F)F)cc(C(F)(F)F)c4)[C@H](Cc4ccccc4)C2)CC3)C1 [Compound 48] | > 10 µM | > 10 µM | 0.219 µM |
| O=C(c1ccccn1)N1CCC2(CC1)CCN([C@H]1CCN(C(=O)c3cc(C(F)(F)F)cc(C(F)(F)F)c3)[C@H](Cc3ccccc3)C1)CC2 [Compound 49] | > 10 µM | 3.98 µM | 0.107 µM |
| O=C(c1cccnc1)N1CCC2(CC1)CCN([C@H]1CCN(C(=O)c3cc(C(F)(F)F)cc(C(F)(F)F)c3)[C@H](Cc3ccccc3)C1)CC2 [Compound 50] | > 10 µM | 2.63 µM | 0.0776 µM |
| O=C(c1ccncc1)N1CCC2(CC1)CCN([C@H]1CCN(C(=O)c3cc(C(F)(F)F)cc(C(F)(F)F)c3)[C@H](Cc3ccccc3)C1)CC2 [Compound 51] | > 10 µM | 3.63 µM | 0.0295 µM |
| O=C(c1cnccn1)N1CCC2(CC1)CCN([C@H]1CCN(C(=O)c3cc(C(F)(F)F)cc(C(F)(F)F)c3)[C@H](Cc3ccccc3)C1)CC2 [Compound 52] | > 10 µM | 2.88 µM | 0.0603 µM |
| O=C(c1ncccc1O)N1CCC2(CC1)CCN([C@H]1CCN(C(=O)c3cc(C(F)(F)F)cc(C(F)(F)F)c3)[C@H](Cc3ccccc3)C1)CC2 [Compound 53] | > 10 µM | > 10 µM | 0.138 µM |
| O=C(c1ccc[nH]c1=O)N1CCC2(CC1)CCN([C@H]1CCN(C(=O)c3cc(C(F)(F)F)cc(C(F)(F)F)c3)[C@H](Cc3ccccc3)C1)CC2 [Compound 55] | > 10 µM | 3.98 µM | 0.158 µM |
| O=C(c1ccc(=O)[nH]c1)N1CCC2(CC1)CCN([C@H]1CCN(C(=O)c3cc(C(F)(F)F)cc(C(F)(F)F)c3)[C@H](Cc3ccccc3)C1)CC2 [Compound 57] | > 10 µM | 1.91 µM | 0.151 µM |
| O=C1CCC(C(=O)N2CCC3(CC2)CCN([C@H]2CCN(C(=O)c4cc(C(F)(F)F)cc(C(F)(F)F)c4)[C@H](Cc4ccccc4)C2)CC3)=NN1 [Compound 58] | > 10 µM | > 10 µM | 0.0646 µM |
| O=C(c1cc(C(F)(F)F)cc(C(F)(F)F)c1)N1CC[C@@H](N2CCC3(CCN(C(=O)C45CC6CC(CC(C6)C4)C5)CC3)CC2)C[C@H]1Cc1ccccc1 [Compound 59] | 5.89 µM | > 10 µM | 0.347 µM |
| O=C(c1cc(C(F)(F)F)cc(C(F)(F)F)c1)N1CC[C@H](N2CCC3(CCN(C(=O)C45CC6CC(CC(C6)C4)C5)CC3)CC2)C[C@H]1Cc1ccccc1 [Compound 60] | 4.68 µM | 4.68 µM | 0.24 µM |
| CC12CCC(C(=O)N3CCC4(CC3)CCN([C@H]3CCN(C(=O)c5cc(C(F)(F)F)cc(C(F)(F)F)c5)[C@H](Cc5ccccc5)C3)CC4)(OC1=O)C2(C)C (stereo partly drawn) [Compound 61] | > 10 µM | > 10 µM | 0.263 µM |
| O=C(c1ccc2c(c1)OCO2)N1CCC2(CC1)CCN([C@H]1CCN(C(=O)c3cc(C(F)(F)F)cc(C(F)(F)F)c3)[C@H](Cc3ccccc3)C1)CC2 [Compound 62] | > 10 µM | > 10 µM | 0.186 µM |

| Structure (SMILES) | IC50 (NK3) | IC50 (NK2) | IC50 (NK1) |
| --- | --- | --- | --- |
| O=C(c1ccc2c(c1)OCO2)N1CCC2(CC1)CCN([C@@H]1CCN(C(=O)c3cc(C(F)(F)F)cc(C(F)(F)F)c3)[C@H](Cc3ccccc3)C1)CC2 [Compound 63] | > 10 µM | 7.94 µM | 0.437 µM |
| O=C(c1cc2ccccc2o1)N1CCC2(CC1)CCN([C@H]1CCN(C(=O)c3cc(C(F)(F)F)cc(C(F)(F)F)c3)[C@H](Cc3ccccc3)C1)CC2 [Compound 64] | > 10 µM | > 10 µM | 0.891 µM |
| O=C(c1cnc2ccccc2n1)N1CCC2(CC1)CCN([C@H]1CCN(C(=O)c3cc(C(F)(F)F)cc(C(F)(F)F)c3)[C@H](Cc3ccccc3)C1)CC2 [Compound 66] | 6.92 µM | 3.72 µM | 0.0661 µM |
| Cc1nc2ccc(C(=O)N3CCC4(CC3)CCN([C@H]3CCN(C(=O)c5cc(C(F)(F)F)cc(C(F)(F)F)c5)[C@H](Cc5ccccc5)C3)CC4)cc2[nH]1 [Compound 67] | > 10 µM | 9.77 µM | 0.0575 µM |
| O=C(c1ccc2nonc2c1)N1CCC2(CC1)CCN([C@H]1CCN(C(=O)c3cc(C(F)(F)F)cc(C(F)(F)F)c3)[C@H](Cc3ccccc3)C1)CC2 [Compound 68] | > 10 µM | 5.62 µM | 0.295 µM |
| CC(C)(C)CC(=O)N1CCC2(CC1)CCN([C@H]1CCN(C(=O)c3cc(C(F)(F)F)cc(C(F)(F)F)c3)[C@H](Cc3ccccc3)C1)CC2 [Compound 69] | 6.61 µM | 3.09 µM | 0.0646 µM |
| O=C(CC1C=CCC1)N1CCC2(CC1)CCN([C@H]1CCN(C(=O)c3cc(C(F)(F)F)cc(C(F)(F)F)c3)[C@H](Cc3ccccc3)C1)CC2 (stereo partly drawn) [Compound 70] | > 10 µM | 5.37 µM | 0.0813 µM |
| O=C(CC1CCCCC1)N1CCC2(CC1)CCN([C@H]1CCN(C(=O)c3cc(C(F)(F)F)cc(C(F)(F)F)c3)[C@H](Cc3ccccc3)C1)CC2 [Compound 71] | > 10 µM | 9.77 µM | 0.0933 µM |
| O=C(CC12CC3CC(CC(C3)C1)C2)N1CCC2(CC1)CCN([C@H]1CCN(C(=O)c3cc(C(F)(F)F)cc(C(F)(F)F)c3)[C@H](Cc3ccccc3)C1)CC2 [Compound 72] | > 10 µM | > 10 µM | 0.324 µM |
| O=C(NCC(=O)N1CCC2(CC1)CCN([C@H]1CCN(C(=O)c3cc(C(F)(F)F)cc(C(F)(F)F)c3)[C@H](Cc3ccccc3)C1)CC2)c1ccco1 [Compound 73] | > 10 µM | > 10 µM | 0.0331 µM |
| Cc1ccc(OCC(=O)N2CCC3(CC2)CCN([C@H]2CCN(C(=O)c4cc(C(F)(F)F)cc(C(F)(F)F)c4)[C@H](Cc4ccccc4)C2)CC3)c(C)c1 [Compound 74] | > 10 µM | > 10 µM | 0.389 µM |
| O=C(Cc1ccsc1)N1CCC2(CC1)CCN([C@H]1CCN(C(=O)c3cc(C(F)(F)F)cc(C(F)(F)F)c3)[C@H](Cc3ccccc3)C1)CC2 [Compound 76] | 3.98 µM | 1.15 µM | 0.0257 µM |
| O=C(Cn1cnnn1)N1CCC2(CC1)CCN([C@H]1CCN(C(=O)c3cc(C(F)(F)F)cc(C(F)(F)F)c3)[C@H](Cc3ccccc3)C1)CC2 [Compound 77] | > 10 µM | ~8.13 µM | 0.0457 µM |
| O=C(CN1CCCC1=O)N1CCC2(CC1)CCN([C@H]1CCN(C(=O)c3cc(C(F)(F)F)cc(C(F)(F)F)c3)[C@H](Cc3ccccc3)C1)CC2 [Compound 78] | > 10 µM | > 10 µM | 0.269 µM |
| O=C(CN1CCOC1=O)N1CCC2(CC1)CCN([C@H]1CCN(C(=O)c3cc(C(F)(F)F)cc(C(F)(F)F)c3)[C@H](Cc3ccccc3)C1)CC2 [Compound 79] | > 10 µM | > 10 µM | 0.17 µM |

From US7544694B2, “Substituted diaza-spiro-[5.5]-undecane derivatives and their use as neurokinin antagonists” (Janssen Pharmaceutica N.V., priority 2004, dated 2009)
